Data published in US20250325677A1, “STAT6 DEGRADERS” (Gilead Sciences, Inc., priority 2024, published 2025).
Each block holds one compound with its values, some of them ahead of it.

Molecular target: STAT6 (Homo sapiens (Human), UniProt P42226)
Assay: STAT6 degrader assay (HiBiT, HeLa LgBiT clone 4.14)
Assay type: cell-based
Details: HeLa LgBiT clone 4.14, 4-24 h; for DC50: geometric mean, given for compounds with >80% Emax, read-out: STAT6 degradation DC50; for Emax: read-out: STAT6 degradation Emax (%)
Description: This was a HiBit based assay. A HeLa cell line stably transfected with a small protein, LgBit (Large Bit) was obtained from Promega. These cells express endogenous STAT6. A small 11 amino acid gene sequence (HiBiT) was inserted in the STAT6 gene using CRISPR technology. Once STAT6 protein is expressed in the cells, the HiBiT sequence will bind the LgBit in the cells resulting in a functional NanoBiT protein, giving a luminescent tag to STAT6, see FIG. 2.
Single cell clones were prepared and the clone 4.14 was selected for the assay based on that clone showing high luminescence, high STAT6 phosphorylation upon stimulation with IL-4, and inhibition of luminescence when cells were treated with STAT6 siRNA.
HeLa LgBiT clone 4.14 cells were suspended in DMEM with 10% FCS, 1% Pen/Strep, Na-pyrovate and Hygromycin B, at a concentration of 1.25*105 cells pr mL. 5000 cells were added pr well of a 384 well plate and 20 nL of compound was added by Echo® liquid handler. NN6394A (terfenadine, a toxic compound) was added to control wells at 50 μM concentration to establish the assay window. In these wells the cells are dead which equals 100% degradation of STAT6.
After 4-24 h of incubation at 37° C. under 5% CO2/95% air, 5 μL substrate (Nano-GLO®) was added to the wells and the plates were centrifuged and incubated for 0.5 h.
The luminescence in the wells as a measure of non-degraded STAT6 was measured in a plate reader (BMG Pherastar FSX). The measured DC50 (in nM) was determined.
The dose-response curves Examples 3p1, 3e50, 3e17, and 3e51 are shown below (where percent degradation is plotted vs. test compound concentration in M on a log-scale).

Sequence of STAT6 (P42226 whole entry): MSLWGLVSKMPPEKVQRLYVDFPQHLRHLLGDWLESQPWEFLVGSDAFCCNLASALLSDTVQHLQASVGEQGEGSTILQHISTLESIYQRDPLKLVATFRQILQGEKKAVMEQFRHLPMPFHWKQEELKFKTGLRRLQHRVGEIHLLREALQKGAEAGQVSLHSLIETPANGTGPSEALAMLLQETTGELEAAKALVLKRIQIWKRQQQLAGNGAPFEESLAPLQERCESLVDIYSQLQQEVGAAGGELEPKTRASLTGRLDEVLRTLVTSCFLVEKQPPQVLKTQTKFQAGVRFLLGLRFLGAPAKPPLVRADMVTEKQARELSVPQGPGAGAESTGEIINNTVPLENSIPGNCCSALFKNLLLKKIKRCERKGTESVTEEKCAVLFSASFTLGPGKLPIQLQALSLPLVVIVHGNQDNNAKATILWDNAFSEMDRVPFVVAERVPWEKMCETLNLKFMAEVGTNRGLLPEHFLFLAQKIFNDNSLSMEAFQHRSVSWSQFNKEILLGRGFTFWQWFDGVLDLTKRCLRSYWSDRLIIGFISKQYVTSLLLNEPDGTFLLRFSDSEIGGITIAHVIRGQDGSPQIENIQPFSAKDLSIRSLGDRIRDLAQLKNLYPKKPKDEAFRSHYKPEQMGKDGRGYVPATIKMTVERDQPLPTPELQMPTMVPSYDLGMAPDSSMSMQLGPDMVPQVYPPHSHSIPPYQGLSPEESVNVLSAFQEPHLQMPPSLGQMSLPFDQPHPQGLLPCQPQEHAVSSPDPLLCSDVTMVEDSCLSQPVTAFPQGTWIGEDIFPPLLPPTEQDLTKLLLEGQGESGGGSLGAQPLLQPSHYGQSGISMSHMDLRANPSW

DC50: 4 nM
SMILES: C[C@@H](c1cc2c(-c3ccc(N)nc3)ccnc2n1C)N1CCC(c2ccc(C(=O)N3CCC(CN4CCN(Cc5ccc6c(c5)n(CC(F)(F)F)c(=O)n6C5CCC(=O)NC5=O)CC4)CC3)cc2)CC1 (stereo partly drawn) [Example 3e25, 3-(5-((4-((1-(4-(1-((S)-1-(4-(6-aminopyridin-3-yl)-1-methyl-1H-pyrrolo[2,3-b]pyridin-2-yl)ethyl)piperidin-4-yl)benzoyl)piperidin-4-yl)methyl)piperazin-1-yl)methyl)-2-oxo-3-(2,2,2-trifluoroethyl)-2,3-dihydro-1H-benzo[d]imidazol-1-yl)piperidine-2,6-dione]

DC50: 1.1 nM
SMILES: [2H]C([2H])([2H])n1c(=O)n(C2CCC(=O)NC2=O)c2ccc(CN3CCN(CC4CCN(C(=O)c5ccc(C6CCN([C@@H](C)c7cc8c(-c9ccc(N)nc9)ccnc8n7C)CC6)cc5)CC4)CC3)cc21 (stereo partly drawn) [Example 3e26, 3-(5-((4-((1-(4-(1-((S)-1-(4-(6-aminopyridin-3-yl)-1-methyl-1H-pyrrolo[2,3-b]pyridin-2-yl)ethyl)piperidin-4-yl)benzoyl)piperidin-4-yl)methyl)piperazin-1-yl)methyl)-3-(methyl-d3)-2-oxo-2,3-dihydro-1H-benzo[d]imidazol-1-yl)piperidine-2,6-dione]

Emax: 40 to 50%
SMILES: Cn1c(CN2CCC(c3ccc(C(=O)N4CCN(CC5CCN(Cc6ccc7c(c6)n(C)c(=O)n7C6CCC(=O)NC6=O)CC5)CC4)cc3)CC2)cc2c(-c3ccc4[nH]ncc4c3)ccnc21 (centres unmarked) [Example 3f1, 3-(5-((4-((4-(4-(1-((4-(1H-indazol-5-yl)-1-methyl-1H-pyrrolo[2,3-b]pyridin-2-yl)methyl)-piperidin-4-yl)benzoyl)piperazin-1-yl)methyl)piperidin-1-yl)methyl)-3-methyl-2-oxo-2,3-dihydro-1H-benzo[d]imidazol-1-yl)piperidine-2,6-dione]

DC50: 0.8 nM
SMILES: CNc1ccc(-c2ccnc3c2cc([C@H](C)N2CCC(c4ccc(C(=O)N5CCC(CN6CCN(Cc7ccc8c(c7)n(C)c(=O)n8C7CCC(=O)NC7=O)C[C@@H]6C)CC5)cc4)CC2)n3C)cn1 (stereo partly drawn) [Example 3h2, 3-(3-methyl-5-(((S)-3-methyl-4-((1-(4-(1-((S)-1-(1-methyl-4-(6-(methylamino)pyridin-3-yl)-1H-pyrrolo[2,3-b]pyridin-2-yl)ethyl)piperidin-4-yl)benzoyl)piperidin-4-yl)methyl)piperazin-1-yl)methyl)-2-oxo-2,3-dihydro-1H-benzo[d]imidazol-1-yl)piperidine-2,6-dione]

DC50: 1 nM
SMILES: CNc1ccc(-c2ccnc3c2cc([C@H](C)N2CCC(c4ccc(C(=O)N5CCC(CN6CCN(Cc7ccc8c(c7)n(C)c(=O)n8[C@H]7CCC(=O)NC7=O)C[C@@H]6C)CC5)cc4)CC2)n3C)cn1 [Example 3h4, (S)-3-(3-methyl-5-(((S)-3-methyl-4-((1-(4-(1-((S)-1-(1-methyl-4-(6-(methylamino)pyridin-3-yl)-1H-pyrrolo[2,3-b]pyridin-2-yl)ethyl)piperidin-4-yl)benzoyl)piperidin-4-yl)methyl)piperazin-1-yl)methyl)-2-oxo-2,3-dihydro-1H-benzo[d]imidazol-1-yl)piperidine-2,6-dione]

DC50: 1.1 nM
SMILES: C[C@H]1CN(Cc2ccc3c(c2)n(C)c(=O)n3C2CCC(=O)NC2=O)CCN1CC1CCN(C(=O)c2ccc(N3CCN(Cc4cc5c(-c6ccc(N)nc6)ccnc5n4C)CC3)cc2)CC1 (stereo partly drawn) [Example 3h14, 3-(5-(((S)-4-((1-(4-(4-((4-(6-aminopyridin-3-yl)-1-methyl-1H-pyrrolo[2,3-b]pyridin-2-yl)methyl)piperazin-1-yl)benzoyl)piperidin-4-yl)methyl)-3-methylpiperazin-1-yl)methyl)-3-methyl-2-oxo-2,3-dihydro-1H-benzo[d]imidazol-1-yl)piperidine-2,6-dione]

Continued, compound first:

SMILES: COCc1nc2cc(-c3ccnc4c3cc([C@H](C)N3CCC(c5ccc(C(=O)N6CCC(CN7CCN(Cc8ccc9c(c8)n(C)c(=O)n9C8CCC(=O)NC8=O)C[C@@H]7C)CC6)cc5)CC3)n4C)ccc2[nH]1 (stereo partly drawn) [Example 3e22, 3-(5-(((S)-4-((1-(4-(1-((S)-1-(4-(2-(methoxymethyl)-1H-benzo[d]imidazol-5-yl)-1-methyl-1H-pyrrolo[2,3-b]pyridin-2-yl)ethyl)piperidin-4-yl)benzoyl)piperidin-4-yl)methyl)-3-methylpiperazin-1-yl)methyl)-3-methyl-2-oxo-2,3-dihydro-1H-benzo[d]imidazol-1-yl)piperidine-2,6-dione]
DC50: 0.3 nM

SMILES: COCc1nc2cc(-c3ccnc4c3cc([C@H](C)N3CCC(c5ccc(C(=O)N6CCC(CN7CCN(Cc8ccc9c(c8)n(C)c(=O)n9C8CCC(=O)NC8=O)CC7)CC6)cc5)CC3)n4C)ccc2[nH]1 (stereo partly drawn) [Example 3e66, 3-(5-((4-((1-(4-(1-((S)-1-(4-(2-(methoxymethyl)-1H-benzo[d]imidazol-5-yl)-1-methyl-1H-pyrrolo[2,3-b]pyridin-2-yl)ethyl)piperidin-4-yl)benzoyl)piperidin-4-yl)methyl)piperazin-1-yl)methyl)-3-methyl-2-oxo-2,3-dihydro-1H-benzo[d]imidazol-1-yl)piperidine-2,6-dione]
DC50: 0.5 nM

SMILES: Cn1c(CN2CCC(c3ccc(C(=O)N4CCC(CC5CCN(Cc6ccc7c(c6)n(C)c(=O)n7C6CCC(=O)NC6=O)CC5)CC4)cc3)CC2)cc2c(-c3ccc4[nH]ncc4c3)ccnc21 (centres unmarked) [Example 3h1, 3-(5-((4-((1-(4-(1-((4-(1H-indazol-5-yl)-1-methyl-1H-pyrrolo[2,3-b]pyridin-2-yl)methyl)-piperidin-4-yl)benzoyl)piperidin-4-yl)methyl)piperidin-1-yl)methyl)-3-methyl-2-oxo-2,3-dihydro-1H-benzo[d]imidazol-1-yl)piperidine-2,6-dione]
DC50: 2.4 nM

SMILES: CNc1ccc(-c2ccnc3c2cc([C@H](C)N2CC=C(c4c(C)cc(C(=O)N5CCC(CN6CCN(Cc7ccc8c(c7)n(C7CC7)c(=O)n8[C@@H]7CCC(=O)NC7=O)C[C@@H]6C)CC5)cc4F)CC2)n3C)cn1 [Example 3h7, (R)-3-(3-cyclopropyl-5-(((S)-4-((1-(3-fluoro-5-methyl-4-(1-((S)-1-(1-methyl-4-(6-(methylamino)pyridin-3-yl)-1H-pyrrolo[2,3-b]pyridin-2-yl)ethyl)-1,2,3,6-tetrahydropyridin-4-yl)benzoyl)piperidin-4-yl)methyl)-3-methylpiperazin-1-yl)methyl)-2-oxo-2,3-dihydro-1H-benzo[d]imidazol-1-yl)piperidine-2,6-dione]
DC50: 1.4 nM

SMILES: CNc1ccc(-c2ccnc3c2cc([C@H](C)N2CC=C(c4c(C)cc(C(=O)N5CCC(CC6CCN(c7ccc8c(c7)C7(CC7)C(=O)N8C7CCC(=O)NC7=O)CC6)CC5)cc4F)CC2)n3C)cn1 (stereo partly drawn) [Example 3h8, 3-(5′-(4-((1-(3-fluoro-5-methyl-4-(1-((S)-1-(1-methyl-4-(6-(methylamino)pyridin-3-yl)-1H-pyrrolo[2,3-b]pyridin-2-yl)ethyl)-1,2,3,6-tetrahydropyridin-4-yl)benzoyl)piperidin-4-yl)methyl)piperidin-1-yl)-2′-oxospiro[cyclopropane-1,3′-indolin]-1′-yl)piperidine-2,6-dione]
DC50: 28.4 nM

SMILES: Cc1cc(C(=O)N2CCC(CN3CCN(Cc4ccc5c(c4)n(C4CC4)c(=O)n5C4CCC(=O)NC4=O)C[C@@H]3C)CC2)cc(F)c1C1=CCN([C@@H](C)c2cc3c(-c4ccc(N)nc4)ccnc3n2C)CC1 (stereo partly drawn) [Example 3h15, 3-(5-(((S)-4-((1-(4-(1-((S)-1-(4-(6-aminopyridin-3-yl)-1-methyl-1H-pyrrolo[2,3-b]pyridin-2-yl)ethyl)-1,2,3,6-tetrahydropyridin-4-yl)-3-fluoro-5-methylbenzoyl)piperidin-4-yl)methyl)-3-methyl-piperazin-1-yl)methyl)-3-cyclopropyl-2-oxo-2,3-dihydro-1H-benzo[d]imidazol-1-yl)piperidine-2,6-dione]
DC50: 1.1 nM

SMILES: CNc1ccc(-c2ccnc3c2cc([C@H](C)N2CC=C(c4c(C)cc(C(=O)N5CCC(CN6CCN(c7ccc8c(c7)C7(CC7)C(=O)N8C7CCC(=O)NC7=O)C[C@@H]6C)CC5)cc4F)CC2)n3C)cn1 (stereo partly drawn) [Example 3h19, 3-(5′-((S)-4-((1-(3-fluoro-5-methyl-4-(1-((S)-1-(1-methyl-4-(6-(methylamino)pyridin-3-yl)-1H-pyrrolo[2,3-b]pyridin-2-yl)ethyl)-1,2,3,6-tetrahydropyridin-4-yl)benzoyl)piperidin-4-yl)methyl)-3-methylpiperazin-1-yl)-2′-oxospiro[cyclopropane-1,3′-indolin]-1′-yl)piperidine-2,6-dione]
Emax: 40 to 50%

SMILES: CNc1ccc(-c2ccnc3c2cc([C@H](C)N2CCC(c4ccc(C(=O)N5CCC(CN6CCN(Cc7cc8c(cc7F)n(C7CCC(=O)NC7=O)c(=O)n8C)C[C@@H]6C)CC5)cc4)CC2)n3C)cn1 (stereo partly drawn) [Example 3h21, 3-(6-fluoro-3-methyl-5-(((S)-3-methyl-4-((1-(4-(1-((S)-1-(1-methyl-4-(6-(methylamino)pyridin-3-yl)-1H-pyrrolo[2,3-b]pyridin-2-yl)ethyl)piperidin-4-yl)benzoyl)piperidin-4-yl)methyl)piperazin-1-yl)methyl)-2-oxo-2,3-dihydro-1H-benzo[d]imidazol-1-yl)piperidine-2,6-dione]
DC50: 1 nM
